{"source": "patent US6413988B1", "about": "“Prucalopride oral solution” (Janssen Pharmaceutica N.V., priority 1999, dated 2002)", "origin": "cited, not measured here", "key": {"5-HT4 receptors": {"target": "5-HT4 receptors (Homo sapiens, UniProt Q13639)", "sequence (Q13639 whole entry)": "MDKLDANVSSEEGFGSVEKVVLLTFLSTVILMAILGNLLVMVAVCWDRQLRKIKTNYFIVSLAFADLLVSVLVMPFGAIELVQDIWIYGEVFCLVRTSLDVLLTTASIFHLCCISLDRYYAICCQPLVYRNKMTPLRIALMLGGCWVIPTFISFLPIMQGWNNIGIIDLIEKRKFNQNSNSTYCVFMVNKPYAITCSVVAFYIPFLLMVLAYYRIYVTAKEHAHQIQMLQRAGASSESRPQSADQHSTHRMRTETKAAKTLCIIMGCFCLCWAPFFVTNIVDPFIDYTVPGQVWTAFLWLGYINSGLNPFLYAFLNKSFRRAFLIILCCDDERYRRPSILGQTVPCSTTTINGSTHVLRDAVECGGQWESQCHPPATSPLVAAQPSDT"}, "5-HT2A receptors": {"target": "5-HT2A receptors (Homo sapiens, UniProt P28223)", "sequence (P28223 whole entry)": "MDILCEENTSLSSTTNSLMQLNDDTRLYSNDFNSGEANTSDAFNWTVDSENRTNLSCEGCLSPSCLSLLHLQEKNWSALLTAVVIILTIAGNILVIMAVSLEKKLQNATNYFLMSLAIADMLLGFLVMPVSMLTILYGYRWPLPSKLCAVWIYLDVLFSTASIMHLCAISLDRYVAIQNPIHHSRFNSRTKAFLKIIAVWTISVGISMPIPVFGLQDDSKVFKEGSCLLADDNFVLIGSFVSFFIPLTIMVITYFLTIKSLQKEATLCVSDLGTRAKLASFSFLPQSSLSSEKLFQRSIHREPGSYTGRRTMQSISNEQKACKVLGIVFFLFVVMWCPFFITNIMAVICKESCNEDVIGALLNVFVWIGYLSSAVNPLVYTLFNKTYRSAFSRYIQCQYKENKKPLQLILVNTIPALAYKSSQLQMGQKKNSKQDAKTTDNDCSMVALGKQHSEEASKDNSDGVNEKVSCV"}}}
{"smiles": "COCCCN1CCC(NC(=O)c2cc(Cl)c(N)c3c2OCC3)CC1", "note": "[Prucalopride, 4-amino-5-chloro-2,3-dihydro-N-[1-(3-methoxypropyl)-4-piperidinyl]-7-benzofuran-carboxamide]", "values": [{"measurement": "agonist of 5-HT4 receptors", "setting": "5-HT4 receptors", "value": "potent and selective agonist"}, {"measurement": "affinity for 5-HT2A receptors", "setting": "5-HT2A receptors", "value": "no affinity"}, {"measurement": "colonic motility and defecation", "setting": "colon; in animals", "value": "stimulates colonic motility and defecation"}, {"measurement": "giant contractions in the colon", "setting": "colon; propagated over the length of the colon as a peristaltic wave", "value": "induces giant contractions in the colon"}, {"measurement": "affinity for 5-HT3 receptors", "setting": "5-HT3 receptors", "value": "no affinity"}]}
